Patent publication US7125881B2, “Use of pyrimidine—or triazine—2 carbonitiles for treating diseases associated with cysteine prostease activity and novel pyrimidine-2-carbonitile derivatives” (AstraZeneca AB, priority 2002, dated 2006)
Counter-ions that a name gives are not always drawn.

SMILES	melting point [°C]
CCNc1nc(C#N)nc(Nc2ccc(Cl)cc2)c1N [Example 53, 5-Amino-4[(4-Chlorophenyl)amino]-6(ethylamino)pyrimidine-2-carbonitrile]	211 to 212
COc1c(Nc2ccc(Cl)cc2)nc(C#N)nc1N1CCNCC1 (as salt: trifluoroacetate) [Example 44, 4-[(4-Chlorophenyl)amino]-5-methoxy-6-piperazin-1-ylpyrimidine-2-carbonitrile]	230
N#Cc1nc(Nc2ccc(Cl)cc2)c(N)c(N2CCOCC2)n1 [Example 52, 5-Amino-4-[(4-chlorophenyl)amino]-6-morpholin-4-ylpyrimidine-2-carbonitrile]	253 to 254
COc1c(Nc2ccc(Cl)cc2)nc(C#N)nc1N1CC[C@H](N)C1 (as salt: trifluoroacetate) [Example 46, 4-[(3S)-3-Aminopyrrolidin-1-yl]-6-[(4-chlorophenyl)amino]-5-methoxypyrimidine-2-carbonitrile]	345 to 347
COc1c(Nc2ccc(Cl)cc2)nc(C#N)nc1N1CCN(CCCN(C)C)CC1 (as salt: trifluoroacetate) [Example 47, 4-[(4-Chlorophenyl)amino]-6-{4-[3-(dimethylamino)propyl]piperazin-1-yl}-5-methoxypyrimidine-2-carbonitrile]	210 to 212
COc1c(Nc2ccc(Cl)cc2)nc(C#N)nc1N(C)C [Example 48, 4-[(4-Chlorophenyl)amino]-6-(dimethylamino)5-methoxypyrimidine-2-carbonitrile]	173
COc1c(Nc2ccc(Cl)cc2)nc(C#N)nc1N1CCOCC1 [Example 45, 4-[(4-Chlorophenyl)amino]-5-methoxy-6-morpholin-4-ylpyrimidine-2-carbonitrile]	176
COc1c(Nc2ccc(Cl)cc2)nc(C#N)nc1N1CCNC(=O)C1 [Example 49, 4-[(4-Chlorophenyl)amino]-5-methoxy-6(3-oxopiperazin-1-yl)pyrimidine-2-carbonitrile]	244
